From publication PMC6199744, “Development of Chemical Proteomics for the Folateome and Analysis of the Kinetoplastid Folateome” (ACS Infectious Diseases, 2018)
Read-outs that look alike come from different tables or passages of the source.

Columns and labels:
Format in all cases: binding
[1] = target: T1, HeLa cell extract proteins (Homo sapiens, UniProt O60884)
T1 construct: endogenous in cells; host or cells: HeLa cell extract

[2] = target: T2, HeLa cell extract proteins (Homo sapiens, UniProt P15311)
T2 construct: endogenous in cells; host or cells: HeLa cell extract

[3] = target: T3, HeLa cell extract proteins (Homo sapiens, UniProt P31947)
T3 construct: endogenous in cells; host or cells: HeLa cell extract
T3 sequence (P31947 1-248): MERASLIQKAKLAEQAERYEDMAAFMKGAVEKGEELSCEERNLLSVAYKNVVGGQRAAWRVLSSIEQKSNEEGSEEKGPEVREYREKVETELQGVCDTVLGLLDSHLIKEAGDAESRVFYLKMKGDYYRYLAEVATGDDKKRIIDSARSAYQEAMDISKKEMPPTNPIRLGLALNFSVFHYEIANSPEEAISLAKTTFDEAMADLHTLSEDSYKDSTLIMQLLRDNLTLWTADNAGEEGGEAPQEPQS

[4] = target: T4, HeLa cell extract proteins (Homo sapiens, UniProt P49327)
T4 construct: endogenous in cells; host or cells: HeLa cell extract
T4 sequence (P49327 whole entry): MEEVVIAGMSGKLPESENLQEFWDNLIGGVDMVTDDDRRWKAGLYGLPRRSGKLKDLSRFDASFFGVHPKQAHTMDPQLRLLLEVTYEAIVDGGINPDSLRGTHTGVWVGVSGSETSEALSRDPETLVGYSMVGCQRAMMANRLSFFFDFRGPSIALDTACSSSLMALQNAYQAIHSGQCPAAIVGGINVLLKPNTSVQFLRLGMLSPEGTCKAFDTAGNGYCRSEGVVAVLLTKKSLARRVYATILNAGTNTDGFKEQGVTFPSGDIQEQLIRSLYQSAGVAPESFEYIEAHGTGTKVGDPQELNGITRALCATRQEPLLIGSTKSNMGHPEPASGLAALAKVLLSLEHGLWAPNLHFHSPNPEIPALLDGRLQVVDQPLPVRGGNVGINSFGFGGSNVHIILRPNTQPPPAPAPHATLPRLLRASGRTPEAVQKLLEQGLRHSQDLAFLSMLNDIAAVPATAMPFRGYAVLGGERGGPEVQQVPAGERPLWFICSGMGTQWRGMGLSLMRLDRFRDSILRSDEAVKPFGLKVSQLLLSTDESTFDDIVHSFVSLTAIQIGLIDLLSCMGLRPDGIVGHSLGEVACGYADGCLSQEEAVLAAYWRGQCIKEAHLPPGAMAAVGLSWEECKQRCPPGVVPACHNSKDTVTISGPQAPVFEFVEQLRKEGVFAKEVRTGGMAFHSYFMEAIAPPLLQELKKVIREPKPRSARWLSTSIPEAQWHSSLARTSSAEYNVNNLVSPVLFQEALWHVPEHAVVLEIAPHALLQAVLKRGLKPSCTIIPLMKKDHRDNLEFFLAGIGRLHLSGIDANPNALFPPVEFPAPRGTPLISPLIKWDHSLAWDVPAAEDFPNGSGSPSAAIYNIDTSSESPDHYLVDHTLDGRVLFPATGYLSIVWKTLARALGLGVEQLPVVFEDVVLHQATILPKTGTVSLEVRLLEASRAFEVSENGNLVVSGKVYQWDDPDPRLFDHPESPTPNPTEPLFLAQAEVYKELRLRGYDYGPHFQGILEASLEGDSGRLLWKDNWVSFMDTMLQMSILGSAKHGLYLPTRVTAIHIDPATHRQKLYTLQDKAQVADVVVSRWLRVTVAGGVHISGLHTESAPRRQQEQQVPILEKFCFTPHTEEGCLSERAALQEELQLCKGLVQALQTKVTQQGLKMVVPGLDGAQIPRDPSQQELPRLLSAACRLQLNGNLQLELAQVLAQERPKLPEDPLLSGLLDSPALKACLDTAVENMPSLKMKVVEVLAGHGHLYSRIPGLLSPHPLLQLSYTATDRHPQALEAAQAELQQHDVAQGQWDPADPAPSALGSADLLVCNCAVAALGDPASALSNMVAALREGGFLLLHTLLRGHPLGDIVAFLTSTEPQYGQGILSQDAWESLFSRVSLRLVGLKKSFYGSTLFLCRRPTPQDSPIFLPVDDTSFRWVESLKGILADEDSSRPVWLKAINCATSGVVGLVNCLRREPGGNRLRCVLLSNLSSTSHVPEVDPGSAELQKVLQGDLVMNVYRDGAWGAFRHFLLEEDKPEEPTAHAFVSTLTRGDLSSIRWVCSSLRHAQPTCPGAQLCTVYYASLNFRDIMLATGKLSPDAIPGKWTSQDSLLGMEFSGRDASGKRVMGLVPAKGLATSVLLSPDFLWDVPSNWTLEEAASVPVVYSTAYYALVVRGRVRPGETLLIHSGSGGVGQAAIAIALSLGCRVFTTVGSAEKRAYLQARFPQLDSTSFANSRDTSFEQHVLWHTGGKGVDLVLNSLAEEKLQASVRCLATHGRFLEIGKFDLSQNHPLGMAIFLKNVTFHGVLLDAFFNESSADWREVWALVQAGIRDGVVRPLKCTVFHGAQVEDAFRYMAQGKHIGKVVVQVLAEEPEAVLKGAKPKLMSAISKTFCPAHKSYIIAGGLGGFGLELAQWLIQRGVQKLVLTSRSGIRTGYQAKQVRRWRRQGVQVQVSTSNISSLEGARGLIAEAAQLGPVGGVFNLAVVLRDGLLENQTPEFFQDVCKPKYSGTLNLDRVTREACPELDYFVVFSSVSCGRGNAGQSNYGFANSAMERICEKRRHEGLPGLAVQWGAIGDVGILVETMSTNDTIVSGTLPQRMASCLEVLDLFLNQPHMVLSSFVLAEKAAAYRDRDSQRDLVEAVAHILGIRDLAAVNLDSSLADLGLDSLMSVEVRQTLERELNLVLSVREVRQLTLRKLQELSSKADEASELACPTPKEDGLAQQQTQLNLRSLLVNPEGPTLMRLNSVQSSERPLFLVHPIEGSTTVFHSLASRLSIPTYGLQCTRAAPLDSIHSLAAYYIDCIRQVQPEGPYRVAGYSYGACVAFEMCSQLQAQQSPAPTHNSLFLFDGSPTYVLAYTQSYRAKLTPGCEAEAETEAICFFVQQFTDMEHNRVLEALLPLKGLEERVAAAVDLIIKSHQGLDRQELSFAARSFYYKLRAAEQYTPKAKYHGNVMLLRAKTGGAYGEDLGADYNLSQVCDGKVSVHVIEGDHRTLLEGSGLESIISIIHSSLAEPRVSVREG

[5] = target: T5, HeLa cell extract proteins (Homo sapiens, UniProt P60981)
T5 construct: endogenous in cells; host or cells: HeLa cell extract
T5 sequence (P60981 1-165): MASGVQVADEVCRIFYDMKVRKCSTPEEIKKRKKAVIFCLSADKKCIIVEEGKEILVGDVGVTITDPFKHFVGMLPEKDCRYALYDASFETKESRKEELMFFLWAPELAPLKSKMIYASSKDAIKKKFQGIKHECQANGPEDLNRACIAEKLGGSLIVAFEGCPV

[6] = target: T6, HeLa cell extract proteins (Homo sapiens, UniProt P63208)
T6 construct: endogenous in cells; host or cells: HeLa cell extract
T6 sequence (P63208 whole entry): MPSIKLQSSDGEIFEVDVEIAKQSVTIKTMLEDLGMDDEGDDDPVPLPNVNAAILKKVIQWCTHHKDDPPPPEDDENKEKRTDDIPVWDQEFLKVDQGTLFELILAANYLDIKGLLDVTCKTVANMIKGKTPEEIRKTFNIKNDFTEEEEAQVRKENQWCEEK

[7] = target: T7, HeLa cell extract proteins (Homo sapiens, UniProt P78527)
T7 construct: endogenous in cells; host or cells: HeLa cell extract

[8] = target: T8, HeLa cell extract proteins (Homo sapiens, UniProt Q2TB90)
T8 construct: endogenous in cells; host or cells: HeLa cell extract
T8 sequence (Q2TB90 1-917): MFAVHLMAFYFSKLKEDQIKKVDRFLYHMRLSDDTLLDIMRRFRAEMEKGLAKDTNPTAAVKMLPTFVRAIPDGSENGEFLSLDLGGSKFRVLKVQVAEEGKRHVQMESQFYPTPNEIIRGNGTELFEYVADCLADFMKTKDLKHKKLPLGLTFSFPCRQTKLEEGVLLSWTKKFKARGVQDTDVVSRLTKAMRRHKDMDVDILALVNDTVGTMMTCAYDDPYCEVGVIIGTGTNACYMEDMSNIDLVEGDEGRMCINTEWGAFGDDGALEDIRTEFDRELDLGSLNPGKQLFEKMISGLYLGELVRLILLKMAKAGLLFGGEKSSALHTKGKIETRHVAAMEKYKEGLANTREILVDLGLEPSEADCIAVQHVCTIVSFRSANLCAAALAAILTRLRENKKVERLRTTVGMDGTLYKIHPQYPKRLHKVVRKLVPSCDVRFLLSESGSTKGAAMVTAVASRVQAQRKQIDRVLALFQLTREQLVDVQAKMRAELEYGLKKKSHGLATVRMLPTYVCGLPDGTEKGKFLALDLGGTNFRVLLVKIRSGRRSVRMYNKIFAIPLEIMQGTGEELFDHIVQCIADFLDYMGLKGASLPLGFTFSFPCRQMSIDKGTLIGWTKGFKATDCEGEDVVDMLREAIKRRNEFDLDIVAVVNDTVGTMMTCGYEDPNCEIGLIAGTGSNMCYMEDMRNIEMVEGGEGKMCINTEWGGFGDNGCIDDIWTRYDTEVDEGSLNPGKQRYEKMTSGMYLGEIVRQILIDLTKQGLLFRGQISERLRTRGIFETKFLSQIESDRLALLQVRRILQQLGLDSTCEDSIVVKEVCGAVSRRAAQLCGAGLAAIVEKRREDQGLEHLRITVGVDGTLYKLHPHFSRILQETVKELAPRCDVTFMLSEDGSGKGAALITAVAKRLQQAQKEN

[9] = target: T9, HeLa cell extract proteins (Homo sapiens, UniProt Q96DE0)
T9 construct: endogenous in cells; host or cells: HeLa cell extract
T9 sequence (Q96DE0 whole entry): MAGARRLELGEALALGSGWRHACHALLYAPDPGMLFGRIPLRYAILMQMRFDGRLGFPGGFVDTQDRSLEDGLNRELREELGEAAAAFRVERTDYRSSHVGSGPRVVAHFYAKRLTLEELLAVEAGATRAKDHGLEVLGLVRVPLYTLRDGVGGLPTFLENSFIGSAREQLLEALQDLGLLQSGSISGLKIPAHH

[10] = target: T10, HeLa cell extract proteins (Homo sapiens, UniProt Q96LA8)
T10 construct: endogenous in cells; host or cells: HeLa cell extract
T10 sequence (Q96LA8 whole entry): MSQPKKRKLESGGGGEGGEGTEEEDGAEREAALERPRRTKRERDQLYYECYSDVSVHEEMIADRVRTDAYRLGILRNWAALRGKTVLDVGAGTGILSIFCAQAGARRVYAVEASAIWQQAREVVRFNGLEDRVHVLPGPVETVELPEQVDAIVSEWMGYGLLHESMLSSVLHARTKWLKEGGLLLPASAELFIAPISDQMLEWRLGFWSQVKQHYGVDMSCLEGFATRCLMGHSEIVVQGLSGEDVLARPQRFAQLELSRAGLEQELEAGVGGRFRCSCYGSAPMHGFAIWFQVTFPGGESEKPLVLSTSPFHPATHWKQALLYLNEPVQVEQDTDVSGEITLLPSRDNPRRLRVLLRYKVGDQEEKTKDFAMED

[11] = target: T11, HeLa cell extract proteins (Homo sapiens, UniProt Q9HBU6)
T11 construct: endogenous in cells; host or cells: HeLa cell extract
T11 sequence (Q9HBU6 1-452): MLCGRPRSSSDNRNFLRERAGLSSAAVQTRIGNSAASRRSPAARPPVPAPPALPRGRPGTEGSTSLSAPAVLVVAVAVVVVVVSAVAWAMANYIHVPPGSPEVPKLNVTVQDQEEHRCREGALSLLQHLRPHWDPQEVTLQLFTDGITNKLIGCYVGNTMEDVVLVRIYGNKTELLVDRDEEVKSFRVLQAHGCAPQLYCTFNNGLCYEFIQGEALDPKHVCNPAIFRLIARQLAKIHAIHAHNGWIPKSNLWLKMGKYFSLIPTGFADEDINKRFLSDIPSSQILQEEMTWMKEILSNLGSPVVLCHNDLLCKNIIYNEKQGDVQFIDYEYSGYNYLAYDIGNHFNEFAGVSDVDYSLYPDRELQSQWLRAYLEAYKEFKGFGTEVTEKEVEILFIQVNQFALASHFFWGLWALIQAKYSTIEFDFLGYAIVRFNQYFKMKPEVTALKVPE

[12] = target: T12, HeLa cell extract proteins (Homo sapiens, UniProt Q9P2K8)
T12 construct: endogenous in cells; host or cells: HeLa cell extract
T12 sequence (Q9P2K8 whole entry): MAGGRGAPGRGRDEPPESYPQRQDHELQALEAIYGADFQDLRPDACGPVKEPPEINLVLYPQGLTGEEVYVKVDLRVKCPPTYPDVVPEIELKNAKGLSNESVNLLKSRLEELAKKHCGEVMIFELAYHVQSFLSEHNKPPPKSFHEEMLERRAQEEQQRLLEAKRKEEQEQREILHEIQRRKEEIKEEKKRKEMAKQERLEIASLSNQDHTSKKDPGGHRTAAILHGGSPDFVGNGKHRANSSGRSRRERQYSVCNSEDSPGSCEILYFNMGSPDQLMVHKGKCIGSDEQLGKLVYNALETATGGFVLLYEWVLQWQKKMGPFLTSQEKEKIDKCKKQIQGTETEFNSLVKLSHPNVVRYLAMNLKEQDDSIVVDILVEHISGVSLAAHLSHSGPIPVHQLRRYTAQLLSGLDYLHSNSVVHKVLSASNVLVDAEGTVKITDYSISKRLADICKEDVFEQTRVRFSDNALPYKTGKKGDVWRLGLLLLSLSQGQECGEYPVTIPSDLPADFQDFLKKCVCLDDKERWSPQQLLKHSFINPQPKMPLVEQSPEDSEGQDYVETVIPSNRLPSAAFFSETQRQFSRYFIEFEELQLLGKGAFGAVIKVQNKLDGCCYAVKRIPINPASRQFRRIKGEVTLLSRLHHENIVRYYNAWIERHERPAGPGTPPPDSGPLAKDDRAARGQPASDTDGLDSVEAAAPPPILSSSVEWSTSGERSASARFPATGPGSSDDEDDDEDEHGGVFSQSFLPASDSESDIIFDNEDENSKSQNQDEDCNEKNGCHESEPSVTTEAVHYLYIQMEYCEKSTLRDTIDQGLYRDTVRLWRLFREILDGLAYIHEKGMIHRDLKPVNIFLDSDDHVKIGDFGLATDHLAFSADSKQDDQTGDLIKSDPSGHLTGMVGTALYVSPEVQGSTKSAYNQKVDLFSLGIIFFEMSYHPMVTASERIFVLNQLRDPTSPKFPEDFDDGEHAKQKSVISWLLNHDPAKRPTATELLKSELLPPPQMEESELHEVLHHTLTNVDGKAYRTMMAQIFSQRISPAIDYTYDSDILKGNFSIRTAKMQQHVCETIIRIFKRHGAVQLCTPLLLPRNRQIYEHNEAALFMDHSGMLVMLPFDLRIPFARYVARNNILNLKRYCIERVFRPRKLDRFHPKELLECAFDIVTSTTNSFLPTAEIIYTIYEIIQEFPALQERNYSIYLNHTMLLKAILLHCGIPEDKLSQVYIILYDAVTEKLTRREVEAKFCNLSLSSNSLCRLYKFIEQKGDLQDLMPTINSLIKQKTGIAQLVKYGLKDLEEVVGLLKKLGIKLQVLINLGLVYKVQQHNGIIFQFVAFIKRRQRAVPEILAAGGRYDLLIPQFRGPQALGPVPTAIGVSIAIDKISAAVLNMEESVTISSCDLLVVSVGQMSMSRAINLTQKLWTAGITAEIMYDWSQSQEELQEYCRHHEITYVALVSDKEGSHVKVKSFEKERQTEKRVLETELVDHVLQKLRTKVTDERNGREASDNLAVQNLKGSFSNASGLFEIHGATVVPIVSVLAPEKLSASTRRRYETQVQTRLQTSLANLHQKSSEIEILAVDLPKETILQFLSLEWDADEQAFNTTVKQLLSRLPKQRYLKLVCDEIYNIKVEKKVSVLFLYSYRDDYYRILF

[13] = HeLa, protein PRKDC (ISOFORM 1 OF DNA-DEPENDENT PROTEIN KINASE CATALYTIC SUBUNIT)
[14] = HeLa, protein PRMT6 (PROTEIN ARGININE N-METHYLTRANSFERASE 6)

Row | SMILES | fold changes relative to vehicle control ([1]; protein DNAJA2, HeLa) | fold changes relative to vehicle control ([2]; HeLa, protein EZR) | fold changes relative to vehicle control ([3]; HeLa, protein SFN) | fold changes relative to vehicle control ([4]; HeLa, captured protein FASN) | fold changes relative to vehicle control ([5]; HeLa, protein DSTN) | fold changes relative to vehicle control ([6]; HeLa, captured protein SKP1) | fold changes relative to vehicle control [7, 13] | fold changes relative to vehicle control ([8]; HeLa, protein HKDC1) | fold changes relative to vehicle control ([9]; HeLa, captured protein NUDT16) | fold changes relative to vehicle control [10, 14] | fold changes relative to vehicle control ([11]; protein ETNK1, HeLa) | fold changes relative to vehicle control [12] | fold changes relative to vehicle control ([2]; protein EZR, HeLa) | fold changes relative to vehicle control ([3]; protein SFN, HeLa) | fold changes relative to vehicle control ([4]; protein FASN, HeLa) | fold changes relative to vehicle control ([5]; HeLa, protein DSTN (DESTRIN.)) | fold changes relative to vehicle control ([6]; captured protein SKP1, HeLa) | fold changes relative to vehicle control ([7]; HeLa, protein PRKDC) | fold changes relative to vehicle control ([8]; captured protein HKDC1, HeLa) | fold changes relative to vehicle control ([9]; captured protein NUDT16, HeLa) | also measured
1 | Nc1nc2c(c(=O)[nH]1)N(C=O)C(CNc1ccc(C(=O)N[C@@H](CCC(=O)O)C(=O)O)cc1)CN2 (stereo partly drawn) [LEU, leucovorin] | 0.86 | 0.94 | 1.07 | 1.13 | 0.96 | 1.09 | 1.05 | 0.89 | 0.93 | 1.17 | 0.99 |  |  |  |  |  |  |  |  |  | fold changes relative to vehicle control ([12]; HeLa, protein EIF2AK4 (ISOFORM 1 OF EUKARYOTIC TRANSLATION INITIATION FACTOR 2-ALPHA KINASE 4)): 0.83
2 | Nc1nc2[nH]cc(CCc3ccc(C(=O)N[C@@H](CCC(=O)O)C(=O)O)cc3)c2c(=O)[nH]1 [PTX, pemetrexed] |  |  |  |  |  |  |  |  |  |  |  | 0.65 |  |  |  |  |  |  |  |  | fold changes relative to vehicle control [1]: 0.9; fold changes relative to vehicle control [2]: 1; fold changes relative to vehicle control [3]: 1.28; fold changes relative to vehicle control [4]: 1.09; fold changes relative to vehicle control [5]: 1.05; fold changes relative to vehicle control [6]: 1.13; fold changes relative to vehicle control [7]: 1.06; fold changes relative to vehicle control [8]: 0.89; fold changes relative to vehicle control [9]: 0.92; fold changes relative to vehicle control [10]: 1.03; fold changes relative to vehicle control [11]: 0.91
3 | CCCCCCOc1ccc(Cc2cnc(N)nc2N)cc1 [compound 1] | 0.92 |  |  |  |  |  |  |  |  |  |  |  | 1.23 | 1.27 | 1.07 | 1.28 fold | 1.04 | 1.01 | 1 | 0.62 | fold changes relative to vehicle control ([10]; protein PRMT6, HeLa): 1.01; fold changes relative to vehicle control ([11]; HeLa, protein ETNK1): 0.94; fold changes relative to vehicle control ([12]; captured protein EIF2AK4, HeLa): 0.97
4 | CCCCCCOc1cccc(Cc2cnc(N)nc2N)c1 [compound 2] | 1.14 |  |  |  |  |  |  |  |  |  |  |  | 1.87 | 1.83 | 1.25 | 2.07 fold | 1.21 | 0.89 | 1.1 | 0.93 | fold changes relative to vehicle control ([10]; protein PRMT6, HeLa): 0.89; fold changes relative to vehicle control ([11]; HeLa, protein ETNK1): 0.99; fold changes relative to vehicle control ([12]; captured protein EIF2AK4, HeLa): 0.96
5 | Nc1nc2cccc(-c3ccccc3)c2n1Cc1ccc(Cl)c(Cl)c1 [compound 3] | 0.95 |  |  |  |  |  |  |  |  |  |  |  | 0.8 | 0.82 | 1.17 | 1.09 fold | 0.87 | 1.2 | 1.05 | 1.02 | fold changes relative to vehicle control ([10]; protein PRMT6, HeLa): 0.93; fold changes relative to vehicle control ([11]; HeLa, protein ETNK1): 1.53; fold changes relative to vehicle control ([12]; captured protein EIF2AK4, HeLa): 1.02
6 | NCCOCCOCC(=O)Nc1nc2ncc(CNc3ccc(C(=O)NC(CCC(=O)O)C(=O)O)cc3)nc2c(=O)[nH]1 (stereo not drawn) [compound 6] | 1.01 | 1.16 | 1.45 | 1.2 | 1.16 | 0.97 | 1.17 | 1.06 | 0.84 | 0.93 | 0.96 | 1.02 |  |  |  |  |  |  |  |  | 
7 | NCCCNc1ccc(C(=O)NC(CCC(=O)O)C(=O)O)cc1 (stereo not drawn) [compound 7] | 0.91 | 0.92 | 0.97 | 1.2 | 0.91 | 1.01 | 1.16 | 1.09 | 1.02 | 1.01 | 1.01 | 1.02 |  |  |  |  |  |  |  |  | 
